“Also recorded” adds a separate entry of the source.
Tests used:
DR5-GFP V2 = DR5-GFP V2 auxin response reporter in roots; assay type: in vivo, Arabidopsis thaliana
Description: (§1) LaserMicroscopy. A Zeiss 710 confocal microscope with 20×, 40×, and 63× objectives were used to detect GFP and propidium iodide (PI) fluorescence. A Keyence BZ-X810 microscope with a 20× objective was used to detect bright field images and GFP fluorescence in FIG. 3B, FIG. 8B right panel, FIG. 9C, FIG. 9F.

[1] = tested on: Arabidopsis thaliana roots; settings: for root elongation / root hair growth: 8-day-old seedlings, 1 μM MBZ or 10 nM IAA plates
[2] = tested on: root cells of etiolated seedlings; test: Root cell size by confocal microscopy (PI staining); assay type: in vivo, Arabidopsis thaliana; settings: 4-day-old etiolated seedlings, 2.5 μM MBZ or 10 μM ACC
Description: as §1

EIN3 = test: 35S-EIN3-GFP protein level in ein3eil1 background; assay type: in vivo, Arabidopsis thaliana; settings: 2 hours, 10 μM MBZ or 50 μM ACC
Description: as §1

[3] = tested on: etiolated Arabidopsis seedlings; test: Triple response of etiolated seedlings; assay type: in vivo, Arabidopsis thaliana; settings: for triple response in etr1-3: 4-days-old etiolated etr1-3 seedlings, 2.5 μM MBZ or 10 μM ACC
MAPK4 = biological target: T1, MAPK4 (Arabidopsis thaliana, UniProt Q39024); test: In vitro kinase assay with non-radioactive ATP-γ-S; assay type: biochemical; settings: 0, 10, 100 μM MBZ
T1 construct: 6xHis (N); made in house; host or cells: E. coli Rosetta 2 (DE3)pLysS
T1 sequence (Q39024 1-376): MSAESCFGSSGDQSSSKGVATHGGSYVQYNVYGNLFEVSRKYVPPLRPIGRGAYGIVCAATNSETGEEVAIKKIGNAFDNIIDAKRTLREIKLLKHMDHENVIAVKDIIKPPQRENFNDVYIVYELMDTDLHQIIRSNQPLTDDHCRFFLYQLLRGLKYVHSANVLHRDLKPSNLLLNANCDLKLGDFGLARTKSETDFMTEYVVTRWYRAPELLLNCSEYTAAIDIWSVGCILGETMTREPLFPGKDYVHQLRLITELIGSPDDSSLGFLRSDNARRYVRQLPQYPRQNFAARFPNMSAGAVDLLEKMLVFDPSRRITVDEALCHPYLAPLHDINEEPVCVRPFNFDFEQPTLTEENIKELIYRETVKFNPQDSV
Procedure: Protein purification. The CTR1 Kinase domain (540 aa-821 aa) (CTR1-KD) and MAPK4 were cloned into a modified pET28a with 6× His tag at their N-terminal. Proteins were expressed in Rosetta™ 2 (DE3)pLysS Competent Cells. Bacteria was cultured in 30 mL LB media containing 50 μg/mL kanamycin overnight at 37° C., 200 rpm. The culture was transferred into 1 L LB media with kanamycin. After the culture reached to 0.7 to 0.9 at OD 600 nm, 0.4 mM isopropylthiop-D-galactoside (IPTG) was added, and the culture was grown for 22 h at 20° C., 200 rpm. Cells were harvested by centrifugation at 4° C. for 10 mins at 3,000×g. The pellet was washed with 0.9% NaCl and resuspended in 40 mL lysis buffer (50 mM pH 7.5 Tris-HCl, 1 mM EDTA, 100 mM NaCl, 20% glycerol, EDTA-free protease inhibitor cocktail, 10 mM imidazole). […] Protein concentration was measured by their absorbance at 280 nm.
In vitro kinase assay with non-radioactive ATP-7-S. The in vitro kinase assay followed the previous published method ([…]). […] The phosphorylation status of MBP, CTR1-KD and MPK4 were analyzed by western blot using Recombinant Anti-Thiophosphate ester antibody (Abcam, Cat. Ab92570, 1:5000) followed by Goat Anti-Rabbit IgG (H+L)-HRP Conjugate antibody (Bio-Rad, Cat. No. 170-6515, 1:5000). The MBP, CTR1-KD and MPK4 proteins loading amounts were measured by Coomassie Blue R250 staining.

ARR5 = test: Expression of immediate-early cytokinin target gene ARR5; assay type: in vivo, Arabidopsis thaliana; settings: 10 μM MBZ, 3 h, 6 h or 12 hours
[4] = tested on: Arabidopsis lateral roots; test: Time lapse of lateral root angle phenotyping after plate transfer; assay type: in vivo, Arabidopsis thaliana
Procedure: Time lapse of lateral root angle phenotyping. […] Root phenotype images of these plates were acquired by CCD vertical scanners (EPSON Perfection V600 Photo, Seiko Epson CO., Nagano, Japan) every 10 mins over a period of 24 hours using the tool described (Ogura et al., 2022). Root length and lateral root angles were measured using Fiji.

Arabidopsis roots [5] = test: mRNA-seq of roots, differential expression and GO analysis; assay type: in vivo, Arabidopsis thaliana
Procedure: mRNA-seq analysis. 14 d old seedlings on DMSO plates were transferred to 12 MS liquid plates with DMSO or 10 μM mebedazole treatment for 4 h, root tissues were collected for RNA extraction and RNA-seq.
Read alignment and generation of counts. The TAIR10 genome file and annotation file were obtained from the Arabidopsis Information resource web site (arabidopsis.org). The An aligner, called the Splice Transcripts Alignments to Reference (STAR) version 2.7.0a^44, was used to align short reads in the FASTQ files. In order to use STAR, a STAR index was built using the following parameters:
Then, short reads in the FASTQ files were aligned and gene counts were obtained using the following STAR command:
A custom R script was used to combine counts per gene from count data produced from STAR cross all samples.
Differential expression analysis. Differential expression of genes between treatments and control was determined using the R package, edgeR (version 3.36.0) (Robinson et al., 2010). The CPM (counts per million) function from edgeR was used to normalize the counts and differentially expressed genes (DEGs) were identified using glmLRT function from edgeR.
Analysis of published Ethylene RNA-Seq. The fastq-dump utility from the Short Read Archive (SRA) Toolkit (v2.6.3) (github.com/ncbi/sra-tools) was used to download transcriptome libraries (SRA accession IDs: SRR648276, SRR648275, SRR648274, SRR648300, SRR648299, and SRR648298) from SRA database (ncbi.nlm.nih.gov/sra) (Leinonen et al., 2011). The color space sequencing data were converted to base-space sequencing data using Perl script ‘csfq2fq.pl’ (gist.github.com/pcantalupo/9c30709fe802c96ea2b3). The converted FASTQ files were aligned and analyzed using above methods.
Statistical analysis. A two-sided Student's t-test was used for comparisons of two conditions. The comparison of meristem length, mature cell length, root length, GSA between multiple treatments or genotypes was performed by One-way ANOVA and post hoc Tukey testing. Detailed information was prepared in figure legends. Statistical significance of overlap between DEGs from MBZ treatment and ethylene treatment was assessed by hypergeometric distribution test. Hypergeometric test function in R was used to calculate statistical significance: • $ phyper(q−1, m, n-m, k, lower.tail=FALSE, log.p=FALSE) • q=the number of genes in common between two sets • m=the number of genes in Set 1; • n=the total number of genes in RNA-Seq counts table (33,602) • k=the number of genes in Set 2

[6] = tested on: Ethylene Response Factor1 (ERF1); test: Expression of ethylene response marker gene ERF1; assay type: in vivo, Arabidopsis thaliana; settings: root tissue, 2 hours, 10 μM MBZ or ACC (50 μM per legend)
hsMAPK14 = hsMAPK14 (Homo sapiens, UniProt Q16539); settings: mammalian systems, Ariey-Bonnet et al., 2020; cited from earlier work
[7] = tested on: IAA1, IAA29, GH3.2, GH3.3, and MAKR4; test: Expression of marker genes of auxin signaling; assay type: in vivo, Arabidopsis thaliana; settings: 10 μM MBZ, 2 h
[8] = tested on: etiolated Col-0 seedlings; test: Measurement of ethylene production by GC-MS; assay type: in vivo, Arabidopsis thaliana; settings: 3-days-old etiolated Col-0 seedlings, 10 μM
Procedure: Measurement of ethylene production. […] These vials were incubated at 22° C. for 3 days under dark environment. 500-1000 μL sample of the headspace gas was sampled with an autosampler (TriPlus RSH, Thermo Scientific) and injected into a gas chromatograph (Trace 1310 GC, Thermo Scientific) that was equipped with a HP-PLOTQ column ([…], 320 μm, 20 μm) and a mass spectrometer (TSQ8000 Evo MS, Thermo Scientific), scanning from 25-27.5 m/z. Separations were carried out at 35° C. using He as the carrier gas. The area of the ethylene peak (RT: 4 min) was integrated using Thermo Xcalibur Qual Browser. A calibration curve was generated by varying the injection volume (100 μL, 250 μL, 500 μL, and 1000 μL) of a 10 ppm ethylene standard (in nitrogen), and sample results are expressed as concentrations calculated from linear regression of calibration samples.

Arabidopsis roots [9] = settings: 4 hours of ethylene treatment; cited from earlier work
microtubules (TUB6-GFP) = test: Microtubule orientation in root tips of TUB6-GFP seedlings; assay type: in vivo, Arabidopsis thaliana; settings: 1 μM IAA or 50 μM MBZ
Description: as §1

[10] = 1 μM MBZ, one week after germination

Chain of hsMAPK14 (Q16539 whole entry): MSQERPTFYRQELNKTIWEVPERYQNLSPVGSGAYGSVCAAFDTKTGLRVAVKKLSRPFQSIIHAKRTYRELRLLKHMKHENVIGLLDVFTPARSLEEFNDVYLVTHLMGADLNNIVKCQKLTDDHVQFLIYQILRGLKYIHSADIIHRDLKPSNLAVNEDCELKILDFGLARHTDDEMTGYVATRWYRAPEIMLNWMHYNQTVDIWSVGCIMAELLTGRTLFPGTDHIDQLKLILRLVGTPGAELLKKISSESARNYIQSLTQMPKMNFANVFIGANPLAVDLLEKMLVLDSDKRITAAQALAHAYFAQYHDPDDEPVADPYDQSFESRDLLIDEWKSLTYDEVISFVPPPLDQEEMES

SMILES: COC(=O)Nc1nc2ccc(C(=O)c3ccccc3)cc2[nH]1 [MBZ, Mebendazole]
- DR5-GFP V2 expression within 3 hours compared to mock (DR5-GFP V2; 10 μM MBZ, 3 h): no increased
- DR5-GFP V2 expression, long-term treatment (DR5-GFP V2; 7-day-old roots grown on 1 μM MBZ plates): induced
- decreased root length (in average reduced by) [1, 10]: 37%
- root hair initiation and elongation [1, 10]: increased
- root length of ein2-5 and ein3eil1 mutant plants ([1]; 1.2 μM MBZ): clearly not affected
- root phenotype of Col-0 ([1]; 1.2 μM MBZ): short roots and increased root hair development
- response of etr1-1 and etr1-3 ethylene receptor mutants (root length, GSA) ([1]; 1.2 μM MBZ plates): strongly responded
- lateral root angles of ctr1-1, ein2-5, and ein3eil1 plants ([1]; 2 to 3-weeks-old plants, 1.3 μM MBZ): insensitive
- root elongation [1]: inhibited
- root hair growth [1]: enhanced
- lateral root angle ([1]; MBZ treatment): distinctly increased
- plant growth and development ([1]; in vivo): strongly inhibited plant growth and development
- lateral root gravitropic setpoint angle (GSA) ([1]; two-week-old seedlings grown on 1 μM MBZ plates): approx. 70 °
- mature cell size [2]: reduced
- 35S-EIN3-GFP protein level (EIN3): dramatically induced
- triple response phenotype ([3]; 3-day-old etiolated seedlings, 10 μM MBZ): significant triple response phenotype
- triple response in etr1-3 [3]: showed the typical triple response phenotype
- triple response in ethylene insensitive mutants ein2-5 and ein3eil1 ([3]; MBZ (2.5 μM), etiolated seedlings): abolished; also recorded: didn't show a triple response
- concentration sufficient to induce the triple response phenotype ([3]; dark environment): 2.5 µM
- effect on MAPK4 kinase activity compared to CTR1 (MAPK4): much less pronounced
- kinase activity of MPK4 (MAPK4; concentration dependent): inhibited
- ARR5 expression (ARR5): did not respond
- reversibility of effect on lateral root angles ([4]; 1 μM MBZ, removal): fully reversible
- time to change of GSA in time-lapse experiment ([4]; MBZ treatment): one to four
- time until lateral root tips grow at a distinctly steeper angle upon removal from MBZ ([4]; transfer from 1 μM MBZ back to control conditions, 5 lateral root tips): four
- time until lateral root tips grow at a more horizontal angle ([4]; transfer from DMSO to 1 μM MBZ medium, five lateral root tips): three
- GO enrichment of ethylene-activated signaling pathway (GO:0009873) (Arabidopsis roots [5]; 10 μM MBZ, 4 hours): 10.83 fold enrichment
- GO enrichment of negative regulation of ethylene-activated signaling pathway (GO:0010105) (Arabidopsis roots [5]; 10 μM MBZ, 4 hours): 21.03 fold enrichment
- number of differentially expressed genes (DEGs) (Arabidopsis roots [5]; 4 hours of MBZ treatment): 1335 genes
- DEGs overlapping with DEGs of 4 hours ethylene treatment (Arabidopsis roots [5]; 4 hours of MBZ treatment vs published ethylene data): 306 genes
- common DEGs retaining directionality of expression change (Arabidopsis roots [5]; MBZ vs ethylene, 4 h): More than 90%
- transcript level of ERF [6]: strongly induced
- activity on hsMAPK14 (hsMAPK14): inhibitor
- expression of marker genes of auxin signaling [7]: did not show any significant change
- ethylene production [8]: not detected

SMILES: C=C [ethylene]
- number of DEGs upon ethylene treatment (published data) (Arabidopsis roots [9]): 1397 genes

SMILES: O=C(O)Cc1c[nH]c2ccccc12 [IAA]
- root elongation [1]: inhibited
- root hair growth [1]: enhanced
- orientation of tubulin in roots within 1 h (microtubules (TUB6-GFP)): significantly changed

SMILES: NC1(C(=O)O)CC1 [ACC, 1-aminocy-clopropane-1-carboxylic acid]
- effect on root angle ([1]; ACC at certain concentrations (0.1-10 μM range)): weak but distinct effect
- mature cell size [2]: reduced
- 35S-EIN3-GFP protein level (EIN3): dramatically induced
- triple response in etr1-3 [3]: completely insensitive
- transcript level of ERF [6]: strongly induced
- ethylene production [8]: dramatically induced

— patent US20250049032A1, “ETHYLENE SIGNALING ACTIVATOR MODULATES ROOT SYSTEM ARCHITECTURE” (Salk Institute for Biological Studies, priority 2021, published 2025)
